What all share (assay type): cell-based, human
Assay [1] deals with peptide-pulsed C1R-A03. Nature of the assay: IFN-gamma ELISA of CTL lines and CTL clones (HLA-A*0301). As to conditions: for IFN-gamma production of CTL clones: CTL clones by limiting dilution; for IFN-gamma production of CTL lines: peptide-pulsed vs non-pulsed target cells, HLA-A*0301. How it is done: (§1) CTLs were propagated in culture using methods similar to those disclosed by Riddell et al. (Walter E A et al., N Engl J Med 1995, 333(16): 1038-44; Riddell S R et al., Nat Med 1996, 2(2): 216-23). The CTLs were co-cultured in a total of 25 ml AIM-V medium containing 5% AS (AIM-V/5% AS) and 40 ng/ml anti-CD3 antibody with two types of Mitomycin C-treated human B lymphoblastoid cell lines at 5×10^6 cells/flask. One day after beginning of the culturing, 120 IU/ml IL-2 was added to the culture. On days 5, 8 and 11, a fresh AIM-V/5% AS medium containing 30 IU/ml IL-2 was added to the culture (Tanaka H et al., Br J Cancer 2001, 84(1): 94-9; Umano Y et al., Br J Cancer 2001, 84(8): 1052-7; Uchida N et al., Clin Cancer Res 2004, 10(24): 8577-86; Suda T et al., Cancer Sci 2006, 97(5): 411-9; Watanabe T et al., Cancer Sci 2005, 96(8): 498-506).
(§2) Dilution of CTLs was carried out to make 0.3, 1 and 3 cells/well in 96 round-bottomed microtiter plates (Nalge Nunc International). The CTLs were co-cultured with two types of Mitomycin C-treated human B lymphoblastoid cell lines at 1×10^4 cells/well in a total of 150 micro-l/well AIM-V/5% AS medium with 30 ng/ml anti-CD3 antibody and 125 IU/ml IL-2. Ten days later, IL-2 was added to the medium at 50 micro-l/well to reach a final concentration of 125 IU/ml. On day 14, the CTL activity was tested, and the CTL clones were propagated using the same method as described above (Uchida N et al., Clin Cancer Res 2004, 10(24): 8577-86; Suda T et al., Cancer Sci 2006, 97(5): 411-9; Watanabe T et al., Cancer Sci 2005, 96(8): 498-506).
(§3) Specifically, peptide-pulsed C1R-A03 (1×10^4 cells/well) was prepared as the stimulator cell. The induced CTLs, i.e., CTL lines and CTL clones, were used as the responder cell. The IFN-gamma ELISPOT assay and IFN-gamma ELISA were performed according to the manufacturer's manual.
On the technique in general: ELISA stands for enzyme-linked immunosorbent assay.

Assay [2] deals with peptide-pulsed C1R-A03. Nature of the assay: IFN-gamma ELISPOT assay of peptide-induced CTLs (HLA-A*0301). As to conditions: CTLs induced from HLA-A*0301-positive donors, peptide-pulsed C1R-A03 vs control.
Source text: Monocyte-derived dendritic cells (DCs) were used as the antigen-presenting cell to induce a cytotoxic T lymphocyte (CTL) response against peptides presented on human leukocyte antigens (HLAs). As described in the other sections, DCs were generated in vitro (Nakahara S et al., Cancer Res 2003, 63(14): 4112-8). Specifically, peripheral-blood mononuclear cells isolated from healthy volunteers (HLA-A*0301-positive) with the Ficoll-Paque plus solution (Pharmacia) were separated by attaching to plastic tissue culture dishes (Becton Dickinson) and concentrated as a monocyte fraction. The monocyte-concentrated population was cultured in the presence of 1000 IU/ml granulocyte macrophage colony-stimulating factor (R&D System) and 1000 IU/ml interleukin(IL)-4 (R&D System) in an AIM-V medium (Invitrogen) containing 2% heat-inactivated autologous serum (AS). After seven days of culturing, the cytokine-induced DCs were pulsed with 20 micro-g/ml each of the synthesized peptides in an AIM-V medium at 37 degrees C. for three hours in the presence of 3 micro-g/ml beta 2-microglobulin. The generated cells appeared to express on their cell surface DC-associated molecules such as CD80, CD83, CD86 and HLA class II (data not shown). Next, these peptide-pulsed DCs were inactivated by X-ray irradiation (20 Gy), and mixed in a 1:20 ratio with autologous CD8^+ T cells obtained by positive selection using the CD8 Positive Isolation Kit (Dynal). These culture products were seeded in a 48-well plate (Corning). Each well was made to contain 1.5×10^4 peptide-pulsed DCs, 3×10^5 CD8^+ T cells and 10 ng/ml IL-7 (R&D System) in 0.5 ml of the AIM-V/2% AS medium. Three days later, these culture products were added with a final concentration of 20 IU/ml IL-2 (CHIRON). On day 7 and day 14, T cells were further stimulated with peptide-pulsed autologous DCs. The DCs were prepared every time by the same method as above. On day 21, after the third peptide stimulation, CTLs were examined against the peptide-pulsed C1R-A03 by a human interferon (IFN)-gamma enzyme-linked immunospot (ELISPOT) assay (Tanaka H et al., Br J Cancer 2001, 84(1): 94-9; Umano Y et al., Br J Cancer 2001, 84(8): 1052-7; Uchida N et al., Clin Cancer Res 2004, 10(24): 8577-86; Suda T et al., Cancer Sci 2006, 97(5): 411-9; Watanabe T et al., Cancer Sci 2005, 96(8): 498-506).
as §3

The next assay relates to peptide-pulsed C1R-A11. The assay can be described thus: IFN-gamma ELISA of CTL lines and CTL clones (HLA-A*1101). The conditions noted are these: for IFN-gamma production of CTL clones: CTL clones by limiting dilution. How it is done:
as §1, §2
Specifically, peptide-pulsed C1R-A11 (1×10^4 cells/well) was prepared as the stimulator cell. The induced CTLs, i.e., CTL lines and CTL clones, were used as the responder cell. The IFN-gamma ELISPOT assay and IFN-gamma ELISA were performed according to the manufacturer's manual.

Data on two sequences can be found in patent US10676514B2, “CDCA1-derived peptide and vaccine containing same” (ONCOTHERAPY SCIENCE, INC., priority 2014, dated 2020).

“Also recorded” adds a separate entry of the source.

With “KIKLGIQQLK (a peptide derived from CDCA1) [SEQ ID NO: 38]”, in the assay with peptide-pulsed C1R-A03 [1] (peptide-pulsed C1R-A03, listed as CDCA1-A03-10-400), the “IFN-gamma production of CTL clones” value was “Potent IFN-gamma production”. Also, the “IFN-gamma production of CTL lines” value in the assay with peptide-pulsed C1R-A03 [1] is “potent IFN-gamma production”. In addition, in the assay on peptide-pulsed C1R-A03 [2] (listed as CDCA1-A03-10-400), the “peptide-specific CTL activity (IFN-gamma production)” value is listed as “potent IFN-gamma production; also recorded: significant specific CTL activity”.

Take “KTKRLNELK (a peptide derived from CDCA1) [SEQ ID NO: 7]”: the “IFN-gamma production of CTL clones” value is reported as “Potent IFN-gamma production” in the assay on peptide-pulsed C1R-A03 [1] (peptide-pulsed C1R-A03, listed as CDCA1-A03-9-219); “potent IFN-gamma production” in the assay with peptide-pulsed C1R-A11 (peptide-pulsed C1R-A11, listed as CDCA1-A1-9-219); “Potent IFN-gamma production” with peptide-pulsed C1R-A11 (peptide-pulsed C1R-A11, listed as CDCA1-A11-9-219). Also, the “IFN-gamma production of CTL lines” value with peptide-pulsed C1R-A03 [1] is given as “potent IFN-gamma production”; in the assay with peptide-pulsed C1R-A11 (CTL lines, peptide-pulsed vs non-pulsed target cells, HLA-A*1101), “potent IFN-gamma production”. For the same sequence, the “peptide-specific CTL activity (IFN-gamma production)” value in the assay on peptide-pulsed C1R-A03 [2] (listed as CDCA1-A03-9-219) is “potent IFN-gamma production; also recorded: significant specific CTL activity”.
